Measurements published in patent US7381824B2 (Agouron Pharmaceuticals, Inc., priority 2003, dated 2008).

Legend:
[1] = biological target: T1, human vascular endothelial growth factor receptor 2 (VEGF-R2) (Homo sapiens, UniProt P35968, DEL940-989/E990V); assay: VEGF-R2 coupled spectrophotometric assay (FLVK, unphosphorylated VEGF-R2D50); assay type: biochemical; conditions: unphosphorylated VEGF-R2D50 (FLVK)
T1 construct: VEGF-R2D50 contains residues 806-939 and 990-1171; made in house; host or cells: baculovirus/insect cell system
T1 sequence (P35968 with tags, fused parts or gaps DEL940-989/E990V limits assumed): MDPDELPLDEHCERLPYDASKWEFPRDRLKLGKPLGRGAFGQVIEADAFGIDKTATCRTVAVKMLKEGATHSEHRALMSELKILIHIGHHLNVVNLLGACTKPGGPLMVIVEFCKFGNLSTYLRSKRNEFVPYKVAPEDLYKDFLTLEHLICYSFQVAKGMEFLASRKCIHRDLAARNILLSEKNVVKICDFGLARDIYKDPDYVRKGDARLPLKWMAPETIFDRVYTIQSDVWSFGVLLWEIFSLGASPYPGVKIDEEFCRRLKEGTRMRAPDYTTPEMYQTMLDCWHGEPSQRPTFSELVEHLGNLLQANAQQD
Description: This construct determines the ability of a test compound to inhibit tyrosine kinase activity. A construct (VEGF-R2D50) of the cytosolic domain of human vascular endothelial growth factor receptor 2 (VEGF-R2) lacking the 50 central residues of the 68 residues of the kinase insert domain was expressed in a baculovirus/insect cell system. Of the 1356 residues of full-length VEGF-R2, VEGF-R2D50 contains residues 806-939 and 990-1171, and also one point mutation (E990V) within the kinase insert domain relative to wild-type VEGF-R2. Autophosphorylation of the purified construct was performed by incubation of the enzyme at a concentration of […] in the presence of 3 mM ATP and 40 mM MgCl2 in 100 mM HEPES, pH 7.5, containing 5% glycerol and 5 mM DTT, at 4° C. for 2 h. […] See Parast et al., Biochemistry, 37, 16788-16801 (1998).
VEGF-R2 Assay: Coupled Spectrophotometric (FLVK-P) Assay
The production of ADP from ATP that accompanies phosphoryl transfer was coupled to oxidation of NADH using phosphoenolpyruvate (PEP) and a system having pyruvate kinase (PK) and lactic dehydrogenase (LDH). The oxidation of NADH was monitored by following the decrease of absorbance at 340 nm (e340=6.22 cm^−1 mM^−1) using a Beckman DU 650 spectrophotometer. Assay conditions for phosphorylated VEGF-R2D50 (indicated as FLVK-P in the tables below) were the following: 1 mM PEP; […] NADH; 50 units of LDH/mL; 20 units of PK/mL; 5 mM DTT; 5.1 mM poly(E4Y1); 1 mM ATP; and 25 mM MgCl2 in 200 mM HEPES, pH 7.5. Assay conditions for unphosphorylated VEGF-R2D50 (indicated as FLVK in the tables) were the following: 1 mM PEP; […] NADH; 50 units of LDH/mL; 20 units of PK/mL; 5 mM DTT; 20 mM poly(E4Y1); 3 mM ATP; and 60 mM MgCl2 and 2 mM MnCl2 in 200 mM HEPES, pH 7.5. Assays were initiated with 5 to 40 nM of enzyme. K1 values were determined by measuring enzyme activity in the presence of varying concentrations of test compounds. The percent inhibition at 50 nM (% inhibition @ 50 nM) was determined by linear least-squares regression analysis of absorbance as a function of time. The binding inhibitions were fitted to equation as described by Morrison. The data were analyzed using Enzyme Kinetic and Kaleidagraph software.

[2] = tested on: human umbilical vein endothelial cells (HUVEC); assay: HUVEC+VEGF proliferation assay; assay type: cell-based; conditions: VEGF-stimulated HUVEC proliferation, MTT, 72 hours
Procedure: HUVEC+VEGF Proliferation Assay
This assay determines the ability of a test compound to inhibit the growth factor-stimulated proliferation of human umbilical vein endothelial cells (“HUVEC”). HUVEC cells (passage 3-4, Clonetics, Corp.) were thawed into EGM2 culture medium (Clonetics Corp) in T75 flasks. Fresh EGM2 medium was added to the flasks 24 hours later. Four or five days later, cells were exposed to another culture medium (F12K medium supplemented with 10% fetal bovine serum (FBS), […] endothelial cell growth supplement (ECGS), and 0.1 mg/mL heparin). Exponentially-growing HUVEC cells were used in experiments thereafter. Ten to twelve thousand HUVEC cells were plated in 96-well dishes in […] of rich, culture medium (described above). The cells were allowed to attach for 24 hours in this medium. The medium was then removed by aspiration and […] of starvation media (F12K+1% FBS) was added to each well. After 24 hours, […] of test agent dissolved in 1% DMSO in starvation medium or this vehicle alone was added into each treatment well; the final DMSO concentration was 0.1%. One hour later, […] of VEGF (30 ng/mL) in starvation media was added to all wells except those containing untreated controls; the final VEGF concentration was 6 ng/mL. Cellular proliferation was quantified 72 hours later by MTT dye reduction, at which time cells were exposed for 4 hours MTT (Promega Corp.). Dye reduction was stopped by addition of a stop solution (Promega Corp.) and absorbance at 595 nm was determined on a 96-well spectrophotometer plate reader.

| SMILES | Ki [1] | IC50 ([2]; Homo sapiens) | IC50 [2] |
| --- | --- | --- | --- |
| CNC(=O)c1c(C)sc2cc(Oc3ccnc4cc(-c5ccncc5)ccc34)ccc12 [Example 10, N-2-dimethyl-6-[(7-pyridin-4-ylquinolin-4-yl]oxy]-1-benzothiophene-3-carboxamide] | 1 to 10 nM | 1 to 10 nM |  |
| CNC(=O)n1c(C)cc2cc(Nc3ccnc4cc(-c5ccncc5)ccc34)ccc21 [Example 11, N-2-dimethyl-5-[(7-pyridin-4-ylquinolin-4-yl]amino]-1H-indole-1-carboxamide] | 1 to 10 nM | < 1 nM |  |
| CNC(=O)c1c(C)sc2cc(Oc3ccnc4cc(-c5cccnc5)ccc34)ccc12 [Example 14, N2dimethyl-6-[(7-pyridin-3-ylquinolin-4-yl)oxy]-1-benzothiophene-3-carboxamide] | 1 to 10 nM | 1 to 10 nM |  |
| CNC(=O)c1c(C)sc2cc(Oc3ccnc4cc(-c5ccccn5)ccc34)ccc12 [Example 31] | 1 to 10 nM |  | < 1 nM |
| C=CCOc1ccc2c(Oc3ccc4c(C(=O)NC)c(C)oc4c3)ccnc2c1 [Example 42, 6-{[7-(allyloxy)quinolin-4-yl]oxy}-N,2-dimethyl-1-benzofuran-3-carboxamide] |  | < 1 nM |  |
| COc1ccc2c(Oc3ccc4c(C(=O)NC(C)C)c(C)oc4c3)ccnc2c1 [Example 43, N-isopropyl-6-[(7-methoxyquinolin-4-yl)oxy]-2-methyl-1-benzofuran-3-carboxamide] |  | 1 to 10 nM |  |
| CCCCNC(=O)c1c(C)oc2cc(Oc3ccnc4cc(OCCN5CCCC5)ccc34)ccc12 [Example 44, N-butyl-2-methyl-6-{[7-(2-pyrrolidin-1-ylethoxy)quinolin-4-yl]oxy}-1-benzofuran-3-carboxamide] | 1 to 10 nM | < 1 nM |  |
| CCCCNC(=O)c1c(C)oc2cc(Oc3ccnc4cc(OCCN5CCOCC5)ccc34)ccc12 [Example 45, N-butyl-2-methyl-6-{[7-(2-morpholin-4-ylethoxy)quinolin-4-yl]oxy}-1-benzofuran-3-carboxamide] | 1 to 10 nM | 1 to 10 nM |  |
| CCCCNC(=O)c1c(C)oc2cc(Oc3ccnc4cc(OCCN5CCCCC5)ccc34)ccc12 [Example 47, N-butyl-2-methyl-6-{[7-(2-piperidin-1-ylethoxy)quinolin-4-yl]oxy}-1-benzofuran-3-carboxamide] | 1 to 10 nM | < 1 nM |  |
| COc1ccc2c(Oc3ccc4c(C(=O)NC5CC5)c(C)sc4c3)ccnc2c1 [Example 48, N-cyclopropyl-6-[(7-methoxyquinolin-4-yl)oxy]-2-methyl-1-benzothiophene-3-carboxamide] | 1 to 10 nM | 1 to 10 nM |  |
| CCCNC(=O)c1c(C)sc2cc(Oc3ccnc4cc(OC)ccc34)ccc12 [Example 50, [(7-methoxyquinolin-4-yl)oxy]-2-methyl-N-propyl-1-benzothiophene-3-carboxamide] | 1 to 10 nM | 1 to 10 nM |  |
| COc1ccc2c(Oc3ccc4c(C(=O)NCCCN5CCOCC5)c(C)sc4c3)ccnc2c1 [Example 62, 6-[(7-methoxyquinolin-4-yl)oxy]-2-methyl-N-(3-morpholin-4-ylpropyl)-1-benzothiophene-3-carboxamide] |  | > 10 nM |  |
| COc1ccc2c(Oc3ccc4c(C(=O)NC5CC5)c(C)oc4c3)ccnc2c1 [Example 63, N-cyclopropyl-6-[(7-methoxyquinolin-4-yl)oxy]-2-methyl-1-benzofuran-3-carboxamide] |  | < 1 nM |  |
| COc1ccc2c(Oc3ccc4c(C(=O)NCCCN5CCOCC5)c(C)oc4c3)ccnc2c1 [Example 64, 6-[(7-methoxyquinolin-4-yl)oxy]-2-methyl-N-(3-morpholin-4-ylpropyl)-1-benzofuran-3-carboxamide] |  | 1 to 10 nM |  |
| Cc1oc2cc(Oc3ccnc4cc(OCCNC5CCC5)ccc34)ccc2c1C(=O)NC1CC1 [Example 100] |  | 1 to 10 nM |  |
| COc1ccc2c(Oc3ccc4c(C(=O)Nc5cc(C)cc(C)n5)c(C)oc4c3)ccnc2c1 [Example 108, N-(4,6-dimethylpyridin-2-yl)-6-[(7-methoxyquinolin-4-yl)oxy]-2-methyl-1-benzofuran-3-carboxamide] |  | 1 to 10 nM |  |
| Cc1cc(C)nc(NC(=O)c2c(C)oc3cc(Oc4ccnc5cc(O)ccc45)ccc23)c1 [Example 109, N-(4,6-dimethylpyridin-2-yl)-6-[(7-hydroxyquinolin-4-yl)oxy]-2-methyl-1-benzofuran-3-carboxamide] |  | > 10 nM |  |

The next lines start with results.

| Ki [1] | SMILES | IC50 ([2]; Homo sapiens) | IC50 [2] |
| --- | --- | --- | --- |
| 1 to 10 nM | CNC(=O)c1c(C)oc2cc(Oc3ccnc4cc(I)ccc34)ccc12 [Example 6, 6-[(7-iodoquinolin-4-yl)oxy]-N,2-dimethyl-1-benzofuran-3-carboxamide] | 1 to 10 nM |  |
| < 1 nM | CNC(=O)c1c(C)oc2cc(Oc3ccnc4cc(-c5cccnc5)ccc34)ccc12 [Example 8, N-2-dimethyl-6-[(7-pyridin-3-ylquinolin-4-yl)oxy]-1-benzofuran-3-carboxamide] | < 1 nM |  |
| < 1 nM | CNC(=O)c1c(C)oc2cc(Oc3ccnc4cc(-c5ccccn5)ccc34)ccc12 [Example 9, N-2-dimethyl-6-[(7-pyridin-2-ylquinolin-4-yl)oxy]-1-benzofuran-3-carboxamide] | 1 to 10 nM |  |
| < 1 nM | CNC(=O)c1c(C)oc2cc(Oc3ccnc4cc(-c5ccco5)ccc34)ccc12 [Example 13, 6-{[7-(2-furyl)quinolin-4-yl]oxy}-N,2-dimethyl-1-benzofuran-3-carboxamide] | 1 to 10 nM |  |
| 1 to 10 nM | CNC(=O)c1c(C)oc2cc(Oc3ccnc4cc(Br)ccc34)ccc12 [Example 19, 6-[(7-bromoquinolin-4-yl)oxy]-N,2-dimethy-1-benzofuran-3-carboxamide] | 1 to 10 nM |  |
| < 1 nM | CNC(=O)c1c(C)oc2cc(Oc3ccnc4cc(OC)ccc34)ccc12 [Example 29, 6-[(7-methoxyquinoline-4-yl)oxy]-N,2-dimethyl-1-benzofuran-3-carboxamide] | 1 to 10 nM |  |
| 1 to 10 nM | CNC(=O)c1c(C)oc2cc(Oc3ccnc4cc(OCCN5CCOCC5)ccc34)ccc12 [Example 36, N,2-dimethyl-6-{[7-(2-morpholin-4-ylethoxy)quinolin-4-yl]oxy)-1-benzofuran-3-carboxamide] | < 1 nM |  |
| 1 to 10 nM | CNC(=O)c1c(C)oc2cc(Oc3ccnc4cc(OCCN(C)C)ccc34)ccc12 [Example 37, 6-({7-[2-(dimethylamino)ethoxy]quinolin-4-yl}oxy)-N,2-dimethyl-1-benzofuran-3-carboxamide] | < 1 nM |  |
| 1 to 10 nM | CNC(=O)c1c(C)oc2cc(Oc3ccnc4cc(OCCN5CCCCC5)ccc34)ccc12 [Example 38, N,2-dimethyl-6-{[7-(2-piperidin-1-ylethoxy)quinolin-4-yl]oxy}-1-benzofuran-3-carboxamide] | < 1 nM |  |
| 1 to 10 nM | CCCCNC(=O)c1c(C)oc2cc(Oc3ccnc4cc(OCCN(C)C)ccc34)ccc12 [Example 46, N-butyl-6-({7-[2-(dimethylamino)ethoxy]quinolin-4-yl}oxy)-2-methyl-1-benzofuran-3-carboxamide] | < 1 nM |  |
